Patent US20120264755A1, “PYRIDINYL DERIVATIVES AS INHIBITORS OF ENZYME NICOTINAMIDE PHOSPHORIBOSYLTRANSFERASE” (TopoTarget, priority 2009, published 2012)
Where a name gives a salt, the structure may show the parent alone.

Test system: A2780 cells
Assay: In vitro cell proliferation assay (WST-1 assay)
Format: cell-based
Details: Homo sapiens, total incubation time 72 h, WST-1 readout
Protocol: A2780 cells were seeded in 96-well plates at 3×10^3 cells/well in 100 μL of culture medium, 8 wells were left empty for media only controls.
After 24 h the compound titrations were performed, in a separate dilution plate, by serially diluting the compounds of general formula (I) in culture medium. A 100 μL of each dilution was added to the plated cells, this was done in triplicate, and controls (e.g. DMSO and blanks) were included. The plates were incubated for 24 h at 37° C. in a CO2 incubator. The compound titrations were repeated in a separate dilution plate after 24 h. The media plus compound from the assay plates were then aspirated. A 100 μL of media was then added to all wells, followed by 100 μL of each compound dilution. The plates were incubated for a further 48 h at 37° C. in a CO2 incubator (total incubation time 72 h). The number of viable cells was then assessed using Cell Proliferation Reagent WST-1. 10 μL of WST-1 reagent added to each well and incubated for one to four hours at 37° C. in CO2 incubator. The absorbance was measured (450 nm/690 nm).
The activity of compounds of general formula (I) in reducing the number of viable cells was calculated as:
% activity=[(S^c−B)/(S^o−B)]×100
S^c denotes signal measured in the presence of test compound, S^o denotes signal detected in the absence of compound, and B denotes background signal, measured in blank wells containing medium only. Analyse data using GraphPad Prism.

| SMILES | IC50 [nM] |
| --- | --- |
| N#C/N=C(\NCCCCCCCCN(CCCN1CCOCC1)C(=O)NC1CCCCC1)Nc1ccncc1 [Compound 1093, 1-(8-(2-cyano-3-(pyridin-4-yl)guanidino)octyl)-3-cyclohexyl-1-(morpholinopropyl)urea] | 0.063 |
| N#C/N=C(\NCCCCCCCN(CCCN1CCOCC1)S(=O)(=O)C1CCCCC1)Nc1ccncc1 [Compound 1010, N-(7-(2-cyano-3-(pyridin-4-yl)guanidino)heptyl)-N-(3-morpholinopropyl)cyclohexanesulfonamide] | 0.002 |
| O=C(c1ccccc1)N(CCCCCCCCNc1c(Nc2ccncc2)c(=O)c1=O)CCCN1CCOCC1 [Compound 1072, N-(8-(3,4-dioxo-2-(pyridin-4-ylamino)cyclobut-1-enylamino)octyl)-N-(3-morpholinopropyl)benzamide] | 0.17 |
| CP(C)(=O)N(CCCCCCCCN/C(=N\C#N)Nc1ccncc1)CCCN1CCOCC1 [Compound 1088, 2-Cyano-1-(8-((dimethylphosphoryl)(3-morpholinopropyl)amino)octyl)-3-(pyridin-4-yl)guanidine] | 5.65 |
| CC(C)S(=O)(=O)N(CCCCCCCCNC(=O)Nc1ccncc1)OCc1ccccc1 [Compound 1028, N-(Benzyloxy)-N-(8-(3-pyridin-4-ylureido)octyl)propane-2-sulfonamide] | 0.37 |
| N#C/N=C(\NCCCCCCCCN(CCF)S(=O)(=O)C1CCCCC1)Nc1ccncc1 [Compound 1103] | 0.005 |
| CC(C)S(=O)(=O)N(CCCCCCCCN/C(=N\C#N)Nc1ccncc1)OCc1ccccc1 [Compound 1024] | 0.047 |
| CS(=O)(=O)N(CCCCCCCN/C(=N\C#N)Nc1ccncc1)OCC1CCCCC1 [Compound 1118, N-(7-(2-cyano-3-(pyridin-4-yl)guanidino)heptyl)-N-(cyclohexylmethoxy)methanesulfonamide] | 0.046 |
| CC(C)NC(=O)N(CCCCCCN/C(=N\C#N)Nc1ccncc1)OCC1CCCCC1 [Compound 1115, 1-(6-(2-cyano-3-(pyridin-4-yl)guanidino)hexyl)-1-(cyclohexylmethoxy)-3-isopropylurea] | 0.033 |
| N#C/N=C(\NCCCCCCNOCC1CCCCC1)Nc1ccncc1 [Compound 1110, 2-cyano-1-(8-(cyclohexylmethoxyamino)hexyl)-3-(pyridin-4-yl)guanidine] | 0.015 |
| N#C/N=C(\NCCCCCCCN(CCCN1CCOCC1)S(=O)(=O)C1CCCC1)Nc1ccncc1 [Compound 1011, N-(7-(2-cyano-3-(pyridin-4-yl)guanidino)heptyl)-N-(3-morpholinopropyl)cyclopentanesulfonamide] | 0.003 |
| O=C(NCCCCCCCN(OC1CCCCO1)S(=O)(=O)Cc1ccccc1)NCc1cccnc1 (stereo not drawn) [Compound 1057, 1-Phenyl-N-(7-(3-(pyridin-3-ylmethyl)ureido)heptyl)-N-(tetrahydro-2H-pyran-2-yloxy)methanesulfonamide] | 0.37 |
| CS(=O)(=O)N(CCCCCCCCNC(=O)NCc1cccnc1)OCc1ccccc1 [Compound 1022] | 0.8 |
| CCN(CCCCCCCCN/C(=N\C#N)Nc1ccncc1)OCCN1CCOCC1 [Compound 1086, 2-Cyano-1-(8-(ethyl(2-morpholinoethoxy)amino)octyl)-3-(pyridin-4-yl)guanidine oxalate] | 0.024 |
| N#C/N=C(\NCCCCCCCCN(CCCN1CCOCC1)C(=O)c1ccccc1)Nc1ccncc1 [Compound 1071, N-(8-(2-cyano-3-(pyridin-4-yl)guanidino)octyl)-N-(3-morpholinopropyl)benzamide] | 0.049 |
| CCNC(=O)N(CCCCCCN/C(=N\C#N)Nc1ccncc1)OCC1CCCCC1 [Compound 1114, 1-(6-(2-cyano-3-(pyridin-4-yl)guanidino)hexyl)-1-(cyclohexylmethoxy)-3-ethylurea] | 0.057 |
| N#CN=C(NCCCCCCOc1ccc(Cl)cc1)Nc1ccncc1 [CHS828, 1-(6-(4-chlorophenoxy)hexyl)-2-cyano-3-(pyridine-4-yl)guanidine, reference compound] | 0.52 |
| CCS(=O)(=O)N(CCCCCCCNC(=O)Nc1ccncc1)OCC1CCCCC1 [Compound 1064, N-(cyclohexylmethoxy)-N-(7-(3-(pyridin-4-yl)ureido)heptyl)ethanesulfonamide] | 0.44 |

Continued, values first:

| IC50 [nM] | SMILES |
| --- | --- |
| 0.049 | CCS(=O)(=O)N(CCCCCCCN/C(=N\C#N)Nc1ccncc1)OCC1CCCCC1 [Compound 1060, N-(7-(2-cyano-3-(pyridin-4-yl)guanidino)heptyl)-N-(cyclohexylmethoxy)ethanesulfonamide] |
| 11.2 | N#C/N=C(\NCCCCCCN(CCCN1CCOCC1)C1CCCCC1)Nc1ccncc1 [Compound 1003, 2-cyano-1-(6-(cyclohexyl(3-morpholinopropyl)amino)hexyl)-3-(pyridin-4-yl)guanidine] |
| 0.35 | CCS(=O)(=O)N(CCCCCCCNc1c(Nc2ccncc2)c(=O)c1=O)OCC1CCCCC1 [Compound 1061, N-(cyclohexylmethoxy)-N-(7-(3,4-dioxo-2-(pyridin-4-ylamino)cyclobut-1-enylamino)heptyl)ethanesulfonamide] |
| 0.39 | O=C(/C=C/c1cccnc1)NCCCCCCCN(OC1CCCCO1)S(=O)(=O)Cc1ccccc1 (stereo not drawn) [Compound 1058, (E)-N-(7-(1-phenyl-N-(tetrahydro-2H-pyran-2-yloxy)methylsulfonamido)heptyl)-3-(pyridin-3-yl)acrylamide] |
| 1.17 | CS(=O)(=O)N(CCCCCCCCNC(=O)/C=C/c1cccnc1)CCCN1CCOCC1 [Compound 1033, N-(8-(N-(3-morpholinopropyl)methylsulfonamido)octyl)-3-(pyridin-3-yl)acrylamide] |
| 0.002 | O=C(NCCCCCCCCN(CCCN1CCOCC1)S(=O)(=O)c1ccccc1)NCc1cccnc1 [Compound 1037] |
| 0.38 | O=C(NCCCCCCN(CCCN1CCOCC1)S(=O)(=O)C1CCCC1)NCc1cccnc1 [Compound 1046] |
| 0.49 | N#C/N=C(\NCCCCCCCCN(CCCN1CCOCC1)C1CCCCC1)Nc1ccncc1 [Compound 1001] |
| 0.6 | O=C(/C=C/c1cccnc1)NCCCCCCCCN(CCCN1CCOCC1)C(=O)c1ccccc1 [Compound 1074, (E)-N-(3-morpholinopropyl)-N-(8-(3-(pyridin-3-yl)acrylamido)octyl)benzamide] |
| 0.036 | N#C/N=C(\NCCCCCCCCN(CCCN1CCOCC1)C(=S)Nc1ccccc1)Nc1ccncc1 [Compound 1094, 1-(8-(2-cyano-3-(pyridin-4-yl)guanidino)octyl)-1-(3-morpholinopropyl)-3-Phenylthiourea] |
| 0.43 | O=c1c(NCCCCCCCN(CCF)S(=O)(=O)C2CCCCC2)c(Nc2ccncc2)c1=O [Compound 1099, N-(7-(3,4-dioxo-2-(pyridin-4-ylamino)cyclobut-1-enylamino)heptyl)-N-(2-fluoroethyl)cyclohexanesulfonamide] |
| 0.1 | O=C(NCCCCCCCN(CCCN1CCOCC1)S(=O)(=O)C1CCCC1)NCc1cccnc1 [Compound 1015, N-(3-morpholinopropyl)-N-(7-(3-(pyridin-3-ylmethyl)ureido)heptyl) cyclopentanesulfonamide] |
| 0.025 | O=C(NCCCCCCCCN(CCCN1CCOCC1)S(=O)(=O)C1CCCCC1)NCc1cccnc1 [Compound 1013, N-(3-morpholinopropyl)-N-(8-(3-(pyridin-3-ylmethyl)ureido)octyl)cyclohexanesulfonamide] |
| 0.39 | O=C(c1ccccc1)N(CCCCCCCCNC(=S)Nc1ccncc1)CCCN1CCOCC1 [Compound 1075, N-(3-morpholinopropyl)-N-(8-(3-(pyridin-4-yl)thioureido)octyl)benzamide] |
| 0.059 | CCS(=O)(=O)N(CCCCCCN/C(=N\C#N)Nc1ccncc1)OCC1CCCCC1 [Compound 1138, N-(6-(2-cyano-3-(pyridin-4-yl)guanidino)hexyl)-N-(cyclohexylmethoxy)ethane-2-sulfonamide] |
| 0.07 | N#C/N=C(\NCCCCCCCN(CCF)S(=O)(=O)C1CCCCC1)Nc1ccncc1 [Compound 1098, N-(7-(2-cyano-3-(pyridin-4-yl)guanidino)heptyl)-N-(2-fluoroethyl)cyclohexansylfonamide] |
| 0.09 | O=C(NCCCCCCCCN(CCCN1CCOCC1)S(=O)(=O)C1CCCC1)NCc1cccnc1 [Compound 1012, N-(3-morpholinopropyl)-N-(8-(3-(pyridin-3-ylmethyl)ureido)octyl)cyclopentanesulfonamide] |
| 0.037 | CCS(=O)(=O)N(CCCCCN/C(=N\C#N)Nc1ccncc1)OCC1CCCCC1 [Compound 1144] |
| 0.15 | CS(=O)(=O)N(CCCCCCCCN/C(=N\C#N)Nc1ccncc1)OCC1CCCCC1 [Compound 1124, N-(8-(2-cyano-3-(pyridin-4-yl)guanidino)octyl)-N-(cyclohexylmethoxy)methanesulfonamide] |
| 0.44 | O=c1c(NCCCCCCCN(CCCN2CCOCC2)S(=O)(=O)C2CCCC2)c(Nc2ccncc2)c1=O [Compound 1019, N-(7-(3,4-dioxo-2-(pyridin-4-ylamino)cyclobut-1-enylamino)heptyl)-N-(3-morpholinopropyl)cyclopentanesulfonamide] |
| 0.35 | O=c1c(NCCCCCCCN(OC2CCCCO2)S(=O)(=O)Cc2ccccc2)c(Nc2ccncc2)c1=O (stereo not drawn) [Compound 1056, N-(7-(3,4-Dioxo-2-(pyridin-4-ylamino)cyclobut-1-enylamino)heptyl)-1-Phenyl-N-(tetrahydro-2H-pyran-2-yloxy)methanesulfonamide] |
